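Method: 48-hour compound exposure of cells in 96-well plates, five concentrations, linear interpolation of endpoints. At the GI50, growth is halved. TGI is the concentration that stops growth completely.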
Legend:
Experiment in all cases: growth of human tumour cells (NCI), 48 h
786-0 renal = test system: 786-0 renal
A498 renal = test system: A498 renal
A549 NSCLC = test system: A549 NSCLC
ACHN renal = test system: ACHN renal
BT-549 breast = test system: BT-549 breast
CAKI-1 renal = test system: CAKI-1 renal
CCRF-CEM leukemia = test system: CCRF-CEM leukemia
COLO 205 colon = test system: COLO 205 colon
DU-145 prostate = test system: DU-145 prostate
HCC-2998 colon = test system: HCC-2998 colon
HCT-116 colon = test system: HCT-116 colon
HCT-15 colon = test system: HCT-15 colon
HL-60(TB) leukemia = test system: HL-60(TB) leukemia
HOP-62 NSCLC = test system: HOP-62 NSCLC
HOP-92 NSCLC = test system: HOP-92 NSCLC
HS 578T breast = test system: HS 578T breast
HT29 colon = test system: HT29 colon
IGROV1 ovarian = test system: IGROV1 ovarian
K-562 leukemia = test system: K-562 leukemia
KM12 colon = test system: KM12 colon
LOX IMVI melanoma = test system: LOX IMVI melanoma
M14 melanoma = test system: M14 melanoma
MALME-3M melanoma = test system: MALME-3M melanoma
MCF7 breast = test system: MCF7 breast
MDA-MB-231 breast = test system: MDA-MB-231 breast
MDA-MB-435 = test system: MDA-MB-435
MOLT-4 leukemia = test system: MOLT-4 leukemia
NCI-H226 lung = test system: NCI-H226 lung
NCI-H23 lung = test system: NCI-H23 lung
NCI-H460 lung = test system: NCI-H460 lung
NCI-H522 lung = test system: NCI-H522 lung
NCI/ADR-RES ovarian = test system: NCI/ADR-RES ovarian
OVCAR-3 ovarian = test system: OVCAR-3 ovarian
OVCAR-4 ovarian = test system: OVCAR-4 ovarian
OVCAR-5 ovarian = test system: OVCAR-5 ovarian
OVCAR-8 ovarian = test system: OVCAR-8 ovarian
PC-3 prostate = test system: PC-3 prostate
RPMI-8226 leukemia = test system: RPMI-8226 leukemia
RXF 393 renal = test system: RXF 393 renal
SF-268 CNS = test system: SF-268 CNS
SF-295 CNS = test system: SF-295 CNS
SF-539 CNS = test system: SF-539 CNS
SK-MEL-2 melanoma = test system: SK-MEL-2 melanoma
SK-MEL-28 melanoma = test system: SK-MEL-28 melanoma
SK-MEL-5 melanoma = test system: SK-MEL-5 melanoma
SK-OV-3 ovarian = test system: SK-OV-3 ovarian
SN12C renal = test system: SN12C renal
SNB-19 CNS = test system: SNB-19 CNS
SNB-75 CNS = test system: SNB-75 CNS
SR leukemia = test system: SR leukemia
SW-620 colon = test system: SW-620 colon
T-47D breast = test system: T-47D breast
TK-10 renal = test system: TK-10 renal
U251 CNS = test system: U251 CNS
UACC-257 melanoma = test system: UACC-257 melanoma
UACC-62 melanoma = test system: UACC-62 melanoma
UO-31 renal = test system: UO-31 renal

Structure (SMILES): Cc1cc(=O)n2nnc3c4ccccc4ccc3n12
- GI50 (786-0 renal): 8.25 µM
- TGI (786-0 renal): 20.6 µM
- GI50 (A498 renal): 11.2 µM
- TGI (A498 renal): 23.2 µM
- GI50 (A549 NSCLC): 10.8 µM
- TGI (A549 NSCLC): 23.8 µM
- GI50 (ACHN renal): 1.58 µM
- TGI (ACHN renal): 2.97 µM
- GI50 (BT-549 breast): 7.76 µM
- TGI (BT-549 breast): 21.1 µM
- GI50 (CAKI-1 renal): 1.64 µM
- TGI (CAKI-1 renal): 3.33 µM
- GI50 (CCRF-CEM leukemia): 1.06 µM
- TGI (CCRF-CEM leukemia): 3.91 µM
- GI50 (COLO 205 colon): 2.97 µM
- TGI (COLO 205 colon): 8.77 µM
- GI50 (DU-145 prostate): 11.3 µM
- TGI (DU-145 prostate): 23.4 µM
- GI50 (HCC-2998 colon): 16.5 µM
- TGI (HCC-2998 colon): 30.9 µM
- GI50 (HCT-116 colon): 1.85 µM
- TGI (HCT-116 colon): 3.46 µM
- GI50 (HCT-15 colon): 2.86 µM
- TGI (HCT-15 colon): 10.4 µM
- GI50 (HL-60(TB) leukemia): 11.5 µM
- TGI (HL-60(TB) leukemia): 37.2 µM
- GI50 (HOP-62 NSCLC): 6.11 µM
- TGI (HOP-62 NSCLC): 20.9 µM
- GI50 (HOP-92 NSCLC): 0.942 µM
- TGI (HOP-92 NSCLC): 15 µM
- GI50 (HS 578T breast): 15.2 µM
- TGI (HS 578T breast): 49 µM
- GI50 (HT29 colon): 2.36 µM
- TGI (HT29 colon): 5.57 µM
- GI50 (IGROV1 ovarian): 1.96 µM
- TGI (IGROV1 ovarian): 4.52 µM
- GI50 (K-562 leukemia): 1.8 µM
- TGI (K-562 leukemia): 7.85 µM
- GI50 (KM12 colon): 10.6 µM
- TGI (KM12 colon): 22.6 µM
- GI50 (LOX IMVI melanoma): 4.42 µM
- TGI (LOX IMVI melanoma): 16.2 µM
- GI50 (M14 melanoma): 13.5 µM
- TGI (M14 melanoma): 27.1 µM
- GI50 (MALME-3M melanoma): 2.08 µM
- TGI (MALME-3M melanoma): 8.19 µM
- GI50 (MCF7 breast): 2.86 µM
- TGI (MCF7 breast): 10.5 µM
- GI50 (MDA-MB-231 breast): 11.4 µM
- TGI (MDA-MB-231 breast): 23.7 µM
- GI50 (MDA-MB-435): 14.3 µM
- TGI (MDA-MB-435): 29.9 µM
- GI50 (MOLT-4 leukemia): 3.39 µM
- TGI (MOLT-4 leukemia): 19.5 µM
- GI50 (NCI-H226 lung): 7.64 µM
- TGI (NCI-H226 lung): 27.1 µM
- GI50 (NCI-H23 lung): 12.4 µM
- TGI (NCI-H23 lung): 27.9 µM
- GI50 (NCI-H460 lung): 13.9 µM
- TGI (NCI-H460 lung): 30.4 µM
- GI50 (NCI-H522 lung): 1.54 µM
- TGI (NCI-H522 lung): 2.93 µM
- GI50 (NCI/ADR-RES ovarian): 3.87 µM
- TGI (NCI/ADR-RES ovarian): 43.9 µM
- GI50 (OVCAR-3 ovarian): 1.79 µM
- TGI (OVCAR-3 ovarian): 3.37 µM
- GI50 (OVCAR-4 ovarian): 1.5 µM
- TGI (OVCAR-4 ovarian): 3.27 µM
- GI50 (OVCAR-5 ovarian): 1.84 µM
- TGI (OVCAR-5 ovarian): 14.7 µM
- GI50 (OVCAR-8 ovarian): 2.03 µM
- TGI (OVCAR-8 ovarian): 6.97 µM
- GI50 (PC-3 prostate): 4.22 µM
- TGI (PC-3 prostate): 17.7 µM
- GI50 (RPMI-8226 leukemia): 0.959 µM
- TGI (RPMI-8226 leukemia): 4.03 µM
- GI50 (RXF 393 renal): 10.8 µM
- TGI (RXF 393 renal): 22.8 µM
- GI50 (SF-268 CNS): 11 µM
- TGI (SF-268 CNS): 23.1 µM
- GI50 (SF-295 CNS): 14.8 µM
- TGI (SF-295 CNS): 30.2 µM
- GI50 (SF-539 CNS): 3.5 µM
- TGI (SF-539 CNS): 16.7 µM
- GI50 (SK-MEL-2 melanoma): 16.5 µM
- TGI (SK-MEL-2 melanoma): 30.6 µM
- GI50 (SK-MEL-28 melanoma): 13.9 µM
- TGI (SK-MEL-28 melanoma): 27.1 µM
- GI50 (SK-MEL-5 melanoma): 12.8 µM
- TGI (SK-MEL-5 melanoma): 25.7 µM
- GI50 (SK-OV-3 ovarian): 2.72 µM
- TGI (SK-OV-3 ovarian): 20.3 µM
- GI50 (SN12C renal): 7.34 µM
- TGI (SN12C renal): 21.5 µM
- GI50 (SNB-19 CNS): 12.8 µM
- TGI (SNB-19 CNS): 25.4 µM
- GI50 (SNB-75 CNS): 14.9 µM
- TGI (SNB-75 CNS): 29.9 µM
- GI50 (SR leukemia): 2.28 µM
- TGI (SR leukemia): 13.7 µM
- GI50 (SW-620 colon): 1.63 µM
- TGI (SW-620 colon): 3.11 µM
- GI50 (T-47D breast): 1.38 µM
- TGI (T-47D breast): 3.14 µM
- GI50 (TK-10 renal): 1.68 µM
- TGI (TK-10 renal): 3.2 µM
- GI50 (U251 CNS): 14.9 µM
- TGI (U251 CNS): 28.1 µM
- GI50 (UACC-257 melanoma): 13 µM
- TGI (UACC-257 melanoma): 25.7 µM
- GI50 (UACC-62 melanoma): 5.3 µM
- TGI (UACC-62 melanoma): 18.6 µM
- GI50 (UO-31 renal): 1.2 µM
- TGI (UO-31 renal): 2.72 µM
